The source of these data is patent US12391733B2, “Stapled intracellular-targeting antimicrobial peptides to treat infection” (priority 2016, dated 2025).

Data set [1] can be described thus: circular dichroism. The conditions noted are these: 10 mM phosphate buffer; pH 7.4; ns °C; 100 uM. On the technique in general: CD spectra are sensitive to the conformation of chiral molecules.
The test system of data set [2] is E. coli. The data set is classed as cell-based, Escherichia coli. The conditions noted are these: Table 1; microbroth dilution, refined MHB, 20-24 hours at 37° C. As to the method:
Antimicrobial Activity Assay The following microbroth dilution protocol was adapted to determine the MIC of each peptide. First, Mueller-Hinton broth (MHB) was passed through an anion exchange column to remove polyanionic species and generate refined MHB. This refined broth was then used in the standard microbroth dilution protocol devised by Hancock et al. for 96 well plates. […] Briefly, bacterial cells were grown overnight in refined MHB at 37° C. and then diluted and allowed to grow again for several hours. Serial dilutions of peptide stocks in water (10 μl) were prepared using clear round-bottom polypropylene 96-well plates. Then 90 μl of bacteria in refined MHB was added to give a final inoculum of 5×10^5 CFU/ml. The plates were then covered with porous tape to reduce evaporation, and incubated for 20-24 hours at 37° C.

Data set [3] concerns human red blood cells (RBCs). Type of data set: cell-based. The conditions noted are these: red cells of human, 1 h, 50. The text has this:
One of the key obstacles that have long impeded the use of AMPs in systemic infections such as sepsis is their tendency to lyse human cells, such as red blood cells (RBCs). Thus, it is critical to minimize hemolytic activity as much as possible to achieve a therapeutic window. […] Of note, in those circumstances where hydrocarbon staples increase hemolytic activity due to increasing hydrophobicity, the alkene moiety can be modified, e.g., by dihydroxylation, to install hydrophilic residues and potentially mitigate hemolysis.
Hemolytic Activity Assay For the determination of hemolytic activity, the following protocol was applied: human blood samples were centrifuged to isolate red blood cells (RBCs), which were then washed and suspended in phosphate-buffered saline to yield a 1% (v/v) suspension. This suspension was then added to serial dilutions of peptide stocks in water in clear round-bottom polypropylene 96-well plates and the plates incubated for 1 hour at 37° C. After incubation, the plates were centrifuged and the supernatant isolated to determine the amount of hemoglobin released using a spectrophotometer (570 nm). The minimum hemolytic concentration (MHC) was determined by assessing the peptide concentration at which there was less than 1% hemoglobin release.

The structures appear in SMILES notation. Positions of bridges follow the written chain, without caps; N, C: chain ends. Non-standard residues stand in square brackets, D forms with d. Residues, ends and D or L forms follow the SMILES beside them. R8 = C=CCCCCCC[C@@](C)(N)C(=O)O; S5 = C=CCCC[C@](C)(N)C(=O)O

In turn, `CC(C)C[C@H](NC(=O)CNC(=O)[C@H](C)NC(=O)[C@H](CCCNC(=N)N)NC(=O)[C@H](CO)NC(=O)[C@H](CO)NC(=O)[C@H](CCCNC(=N)N)NC(=O)[C@@H](N)[C@@H](C)O)C(=O)N[C@@H](CCC(N)=O)C(=O)N[C@@H](Cc1c[nH]c2ccccc12)C(=O)N1CCC[C@H]1C(=O)N[C@H](C(=O)NCC(=O)N[C@@H](CCCNC(=N)N)C(=O)N[C@H](C(=O)N[C@@H](Cc1c[nH]cn1)C(=O)N[C@@H](CCCNC(=N)N)C(=O)N[C@@H](CC(C)C)C(=O)N[C@@H](CC(C)C)C(=O)N[C@@H](CCCNC(=N)N)C(=O)N[C@@H](CCCCN)C(N)=O)C(C)C)C(C)C` yielded a helicity in data set [1] of 0%.

For the compound `CC(C)C[C@H](NC(=O)CNC(=O)[C@H](C)NC(=O)[C@H](CCCNC(=N)N)NC(=O)[C@H](CO)NC(=O)[C@H](CO)NC(=O)[C@H](CCCNC(=N)N)NC(=O)[C@@H](N)[C@@H](C)O)C(=O)N[C@@H](CCC(N)=O)C(=O)N[C@@H](Cc1c[nH]c2ccccc12)C(=O)N1CCC[C@H]1C(=O)N[C@H](C(=O)NCC(=O)N[C@@H](CCCNC(=N)N)C(=O)N[C@H](C(=O)N[C@@H](Cc1c[nH]cn1)C(=O)N[C@@]1(C)CCCC=CCCC[C@@](C)(C(N)=O)NC(=O)[C@H](CCCNC(=N)N)NC(=O)[C@H](CC(C)C)NC(=O)[C@H](CC(C)C)NC1=O)C(C)C)C(C)C` [BFStap(i + 4)1] (H-TRSSRAGLQWPVGRVH[S5]LLR[S5]-NH2; staple 17-21; N-terminus and C-terminus assumed), in data set [2], the “Antimicrobial Activity NIC (μg/ml) E. coli” value (shortened to “Antimicrobial Activity NIC”) was 50.0 µg/mL. For the same compound, the “% Hemolysis at 50 μg/ml” value in data set [3] is recorded as 2.2%.

Take `CC(C)C[C@H](NC(=O)CNC(=O)[C@H](C)NC(=O)[C@H](CCCNC(=N)N)NC(=O)[C@H](CO)NC(=O)[C@H](CO)NC(=O)[C@H](CCCNC(=N)N)NC(=O)[C@@H](N)[C@@H](C)O)C(=O)N[C@@H](CCC(N)=O)C(=O)N[C@@H](Cc1c[nH]c2ccccc12)C(=O)N1CCC[C@H]1C(=O)N[C@H](C(=O)NCC(=O)N[C@@H](CCCNC(=N)N)C(=O)N[C@H](C(=O)N[C@@]1(C)CCCC=CCCC[C@@](C)(C(=O)N[C@@H](CCCCN)C(N)=O)NC(=O)[C@H](CC(C)C)NC(=O)[C@H](CC(C)C)NC(=O)[C@H](CCCNC(=N)N)NC1=O)C(C)C)C(C)C` [BFStap(i + 4)2] (H-TRSSRAGLQWPVGRV[S5]RLL[S5]K-NH2; staple 16-20): in data set [1], the helicity was 3.2%. In addition, in data set [3], the “% Hemolysis at 50 μg/ml” value was found to be 12.6%.

Take `CC(C)C[C@H](NC(=O)CNC(=O)[C@H](C)NC(=O)[C@H](CCCNC(=N)N)NC(=O)[C@H](CO)NC(=O)[C@H](CO)NC(=O)[C@H](CCCNC(=N)N)NC(=O)[C@@H](N)[C@@H](C)O)C(=O)N[C@@H](CCC(N)=O)C(=O)N[C@@H](Cc1c[nH]c2ccccc12)C(=O)N1CCC[C@H]1C(=O)N[C@H](C(=O)NCC(=O)N[C@@H](CCCNC(=N)N)C(=O)N[C@@]1(C)CCCC=CCCC[C@@](C)(C(=O)N[C@@H](CCCNC(=N)N)C(=O)N[C@@H](CCCCN)C(N)=O)NC(=O)[C@H](CC(C)C)NC(=O)[C@H](CCCNC(=N)N)NC(=O)[C@H](Cc2c[nH]cn2)NC1=O)C(C)C` [BFStap(i + 4)3] (H-TRSSRAGLQWPVGR[S5]HRL[S5]RK-NH2; staple 15-19; N-terminus and C-terminus assumed): in data set [2], the “Antimicrobial Activity NIC” value turned out to be 25.0 µg/mL. Further, the helicity in data set [1] is 4.3%. Also, the “% Hemolysis at 50 μg/ml” value in data set [3] amounted to 2.9%.

For `CC(C)C[C@H](NC(=O)CNC(=O)[C@H](C)NC(=O)[C@H](CCCNC(=N)N)NC(=O)[C@H](CO)NC(=O)[C@H](CO)NC(=O)[C@H](CCCNC(=N)N)NC(=O)[C@@H](N)[C@@H](C)O)C(=O)N[C@@H](CCC(N)=O)C(=O)N[C@@H](Cc1c[nH]c2ccccc12)C(=O)N1CCC[C@H]1C(=O)N[C@H](C(=O)NCC(=O)N[C@@]1(C)CCCC=CCCC[C@@](C)(C(=O)N[C@@H](CC(C)C)C(=O)N[C@@H](CCCNC(=N)N)C(=O)N[C@@H](CCCCN)C(N)=O)NC(=O)[C@H](CCCNC(=N)N)NC(=O)[C@H](Cc2c[nH]cn2)NC(=O)[C@H](C(C)C)NC1=O)C(C)C` [BFStap(i + 4)4] (H-TRSSRAGLQWPVG[S5]VHR[S5]LRK-NH2; staple 14-18; N-terminus and C-terminus assumed), the “Antimicrobial Activity NIC” value in data set [2] worked out at 29.2 µg/mL. In addition, the helicity in data set [1] is 6%. Also, the “% Hemolysis at 50 μg/ml” value in data set [3] is on record as 2.9%.

Consider `CC(C)C[C@H](NC(=O)CNC(=O)[C@H](C)NC(=O)[C@H](CCCNC(=N)N)NC(=O)[C@H](CO)NC(=O)[C@H](CO)NC(=O)[C@H](CCCNC(=N)N)NC(=O)[C@@H](N)[C@@H](C)O)C(=O)N[C@@H](CCC(N)=O)C(=O)N[C@@H](Cc1c[nH]c2ccccc12)C(=O)N1CCC[C@H]1C(=O)N[C@@]1(C)CCCC=CCCC[C@@](C)(C(=O)N[C@@H](CCCNC(=N)N)C(=O)N[C@@H](CC(C)C)C(=O)N[C@@H](CC(C)C)C(=O)N[C@@H](CCCNC(=N)N)C(=O)N[C@@H](CCCCN)C(N)=O)NC(=O)[C@H](C(C)C)NC(=O)[C@H](CCCNC(=N)N)NC(=O)CNC1=O` [BFStap(i + 4)6] (H-TRSSRAGLQWP[S5]GRV[S5]RLLRK-NH2; staple 12-16), for which the “% Hemolysis at 50 μg/ml” value in data set [3] turned out to be 10.0%.

As for `CC(C)C[C@H](NC(=O)CNC(=O)[C@H](C)NC(=O)[C@H](CCCNC(=N)N)NC(=O)[C@H](CO)NC(=O)[C@H](CO)NC(=O)[C@H](CCCNC(=N)N)NC(=O)[C@@H](N)[C@@H](C)O)C(=O)N[C@@H](CCC(N)=O)C(=O)N[C@@H](Cc1c[nH]c2ccccc12)C(=O)N1CCC[C@H]1C(=O)N[C@]1(C)CCCCCCC=CCCC[C@@](C)(C(=O)N[C@@H](CCCNC(=N)N)C(=O)N[C@@H](CCCCN)C(N)=O)NC(=O)[C@H](CC(C)C)NC(=O)[C@H](CCCNC(=N)N)NC(=O)[C@H](Cc2c[nH]cn2)NC(=O)[C@H](C(C)C)NC(=O)[C@H](CCCNC(=N)N)NC(=O)CNC1=O` [BFStap(i + 7)3] (H-TRSSRAGLQWP[R8]GRVHRL[S5]RK-NH2; staple 12-19; N-terminus and C-terminus assumed), in data set [2], the “Antimicrobial Activity NIC” value came to 29.2 µg/mL. Further, in data set [3], the “% Hemolysis at 50 μg/ml” value was 6.1%.

Regarding `CC(C)C[C@H](NC(=O)[C@H](CC(C)C)NC(=O)[C@H](CCCNC(=N)N)NC(=O)[C@H](Cc1c[nH]cn1)NC(=O)[C@]1(C)CCCC=CCCCCCC[C@@](C)(NC(=O)CNC(=O)[C@H](C)NC(=O)[C@H](CCCNC(=N)N)NC(=O)[C@H](CO)NC(=O)[C@H](CO)NC(=O)[C@H](CCCNC(=N)N)NC(=O)[C@@H](N)[C@@H](C)O)C(=O)N[C@@H](CCC(N)=O)C(=O)N[C@@H](Cc2c[nH]c3ccccc23)C(=O)N2CCC[C@H]2C(=O)N[C@@H](C(C)C)C(=O)NCC(=O)N[C@@H](CCCNC(=N)N)C(=O)N1)C(=O)N[C@@H](CCCNC(=N)N)C(=O)N[C@@H](CCCCN)C(N)=O` [BFStap(i + 7)5] (H-TRSSRAG[R8]QWPVGR[S5]HRLLRK-NH2; staple 8-15; N-terminus and C-terminus assumed), the “Antimicrobial Activity NIC” value in data set [2] stood at 52.1 µg/mL. In data set [3], the “% Hemolysis at 50 μg/ml” value turned out to be 6.8%.

As for `CC(C)C[C@@H]1NC(=O)CNC(=O)[C@H](C)NC(=O)[C@](C)(NC(=O)[C@H](CO)NC(=O)[C@H](CO)NC(=O)[C@H](CCCNC(=N)N)NC(=O)[C@@H](N)[C@@H](C)O)CCCCCCC=CCCC[C@@](C)(C(=O)NCC(=O)N[C@@H](CCCNC(=N)N)C(=O)N[C@H](C(=O)N[C@@H](Cc2c[nH]cn2)C(=O)N[C@@H](CCCNC(=N)N)C(=O)N[C@@H](CC(C)C)C(=O)N[C@@H](CC(C)C)C(=O)N[C@@H](CCCNC(=N)N)C(=O)N[C@@H](CCCCN)C(N)=O)C(C)C)NC(=O)[C@@H]2CCCN2C(=O)[C@H](Cc2c[nH]c3ccccc23)NC(=O)[C@H](CCC(N)=O)NC1=O` [BFStap(i + 7)8] (H-TRSS[R8]AGLQWP[S5]GRVHRLLRK-NH2; staple 5-12), the helicity in data set [1] was 0%. Further, the “% Hemolysis at 50 μg/ml” value in data set [3] worked out at 3.9%.

With `CC(C)C[C@H](NC(=O)CNC(=O)[C@H](C)NC(=O)[C@H](CCCNC(=N)N)NC(=O)[C@H](CO)NC(=O)[C@H](CO)NC(=O)[C@H](CCCNC(=N)N)NC(=O)[C@@H](N)[C@@H](C)O)C(=O)N[C@@H](CCC(N)=O)C(=O)N[C@@H](Cc1c[nH]c2ccccc12)C(=O)N1CCC[C@H]1C(=O)N[C@H](C(=O)NCC(=O)N[C@@H](CCCNC(=N)N)C(=O)N[C@H](C(=O)N[C@@H](Cc1cnc[nH]1)C(=O)N[C@@H](CCCNC(=N)N)C(=O)N[C@@H](CC(C)C)C(=O)N[C@@H](CC(C)C)C(=O)N[C@@H](CCCNC(=N)N)C(=O)N[C@@H](CCCCN)C(=O)O)C(C)C)C(C)C` [Buforin II(F10W), reference compound], in data set [2], the “Antimicrobial Activity NIC” value is greater than 800 µg/mL. Besides, in data set [3], the “% Hemolysis at 50 μg/ml” value stood at 2.7%.
